According to patent US9174965B2, “Pyrimidinylpiperidinyloxypyridone analogues as GPR119 modulators” (BRISTOL-MYERS SQUIBB COMPANY, priority 2012, dated 2015):
Converted amounts (≈) assume the structure as drawn.

Key:
[1] = Compound bioavailability assay in rats; assay type: in vivo; details: male, Sprague-Dawley, plasma, rat, oral
Protocol: Compound Bioavailability Assays
Male Sprague-Dawley rats (270-350 g) were used in the pharmokinetic studies. Two (2) groups of animals (N=3 per group) were fasted overnight and one group received test compound as an IV infusion dose (1 mg/kg over 10 minutes) via a jugular vein in PEG-400/propylene glycol/ethanol (50:40:10) or Cremophor-EL/PEG400/water (10:40:50, v/v/v). The other group received test compound by oral gavage (2 or 5 mg/kg) as either nano-suspension in Pluronic F-108/polyvinylpyrrolidinone/water (1:2.5:96.5, v/v/v) or in Methocel A4M/Tween 80/water (0.5:0.1:99.4, v/v/v) as suspension (partical size: d50=0.960 μm; d90=4.4 μm) for oral dosing. […]
Pharmacokinetic parameters were obtained by non-compartmental analysis of plasma concentration vs. time data (KINETICA™ software, Version 5.0, Thermo Fisher Scientific Corporation, Philadelphia, Pa.). The peak concentration (Cmax) and time for Cmax (Tmax) were recorded directly from experimental observations. The area under the curve from time zero to the last sampling time [AUC(0-T)] and the area under the curve from time zero to infinity [AUC(INF)] were calculated using a combination of linear and log trapezoidal summations. […] Estimations of AUC and T-HALF were made using a minimum of 3 timepoints with quantifiable concentrations. […]

hERG = hERG (Homo sapiens (Human), UniProt Q12809); experiment: Patch clamp electrophysiology assay, hERG; assay type: cell-based; details: HEK293 cells stably expressing hERG, pH 7.4
Protocol: Compound Electrophysiology Assays
Recombinant ion channels (hERG, sodium [SCN5A], and L-type calcium [Cav1.2]) stably expressed in human embryonic kidney cells (HEK293) are used as test systems, and each system is tested using 2-3 replicates in the conventional patch clamp assay.
Ion channel membrane current recordings are made with a Multiclamp 700 series integrating patch-clamp amplifier (Axon Instruments, Foster City, Calif.) using the whole-cell variant of the patch-clamp technique.
Cells expressing hERG, sodium [SCN5A], or L-type calcium [Cav1.2] channels are placed in a plexiglass bath chamber, mounted on the stage of an inverted microscope, and perfused continuously with bath solution. […]
Initially, a current-voltage relationship is generated in the control bath solution using the following voltage protocol. hERG currents are elicited by 2 second step depolarizations applied from a holding potential of −80 mV to test potentials ranging from −70 mV to +60 mV. […] The peak tail current is monitored until a new steady-state in the presence of test article was achieved. This is followed by the application of the next higher concentration of test article to be tested, and is repeated until all concentrations of test article have been evaluated. Effects of test article on hERG channel are calculated by measuring inhibition of peak tail currents. […]

FaSSIF solubility assay = assay type: physicochemical; details: thermodynamic from solid, FaSSIF buffer, 37° C.
Protocol: Approximately 5-10 mg of accurately weighed test compound was transferred to a glass vial containing 4 mL of a FaSSIF buffer (PharesAG, prepared according to manufactures protocol). The vial was then rotated at 37° C. for 24 h. After equilibration time had been met, the test solution was centrifuge filtered through a 0.45 um PTFE membrane filter. The filtrate was then analyzed by HPLC/UV against a set of standard injections to determine compound concentration.
Find below in Table 9 data for compared compounds (See WO 2011/127106 A1).

hERG, sequence (Q12809 whole entry): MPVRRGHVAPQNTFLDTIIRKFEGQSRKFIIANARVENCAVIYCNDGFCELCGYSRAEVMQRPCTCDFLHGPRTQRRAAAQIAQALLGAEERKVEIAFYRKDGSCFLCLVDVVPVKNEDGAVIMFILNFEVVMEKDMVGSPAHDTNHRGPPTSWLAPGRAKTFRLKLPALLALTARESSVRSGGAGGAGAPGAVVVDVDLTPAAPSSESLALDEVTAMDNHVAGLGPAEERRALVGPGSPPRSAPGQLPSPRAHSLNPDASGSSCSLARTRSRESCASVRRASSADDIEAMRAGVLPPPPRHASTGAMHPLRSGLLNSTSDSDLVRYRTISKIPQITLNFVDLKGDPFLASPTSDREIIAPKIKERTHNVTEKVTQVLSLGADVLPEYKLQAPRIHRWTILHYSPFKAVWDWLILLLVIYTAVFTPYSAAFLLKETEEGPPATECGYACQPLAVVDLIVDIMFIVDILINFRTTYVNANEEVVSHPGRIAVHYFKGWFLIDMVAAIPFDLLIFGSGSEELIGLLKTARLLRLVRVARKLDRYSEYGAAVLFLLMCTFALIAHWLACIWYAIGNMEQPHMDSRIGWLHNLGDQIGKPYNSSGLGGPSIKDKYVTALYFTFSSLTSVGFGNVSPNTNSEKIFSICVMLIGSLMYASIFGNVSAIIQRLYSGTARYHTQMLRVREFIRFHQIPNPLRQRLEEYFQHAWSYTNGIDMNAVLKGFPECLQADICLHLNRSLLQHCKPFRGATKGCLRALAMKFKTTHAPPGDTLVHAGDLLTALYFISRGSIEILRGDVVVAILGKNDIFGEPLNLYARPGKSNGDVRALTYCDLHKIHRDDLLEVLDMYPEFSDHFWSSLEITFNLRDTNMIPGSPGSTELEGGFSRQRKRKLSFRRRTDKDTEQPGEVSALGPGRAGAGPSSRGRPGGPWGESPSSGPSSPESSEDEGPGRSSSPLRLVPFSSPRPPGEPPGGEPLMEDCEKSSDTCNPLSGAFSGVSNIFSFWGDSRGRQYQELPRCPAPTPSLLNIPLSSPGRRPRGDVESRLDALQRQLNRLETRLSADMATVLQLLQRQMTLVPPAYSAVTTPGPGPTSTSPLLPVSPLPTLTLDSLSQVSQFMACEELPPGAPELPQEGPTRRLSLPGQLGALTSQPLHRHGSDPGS

Compound	bioavailability ([1]; 2 mg/kg as a microsuspension) [%]	inhibition at 30 µM (hERG) [%]	solubility at 24 h (FaSSIF solubility assay) [µg/mL]	bioavailability ([1]; 5 mg/kg as a microsuspension) [%]
Cc1nc(-n2cc(Cl)c(OC3CCN(c4ncc(Cl)cn4)CC3)cc2=O)ccc1N1CC[C@@H](O)C1=O [Example 4, (R)-5-chloro-4-((1-(5-chloropyrimidin-2-yl)piperidin-4-yl)oxy)-5′-(3-hydroxy-2-oxopyrrolidin-1-yl)-6′-methyl-2H-[1,2′-bipyridin]-2-one]	122	40	11 (≈ 20.7 µM)	
Cc1nc(-n2cc(Cl)c(OC3CCN(c4ncc(Cl)cn4)CC3)cc2=O)ccc1N1CC[C@H](O)C1=O [Example 3, (S)-5-chloro-4-((1-(5-chloropyrimidin-2-yl)piperidin-4-yl)oxy)-5′-(3-hydroxy-2-oxopyrrolidin-1-yl)-6′-methyl-2H-[1,2′-bipyridin]-2-one]		33		120
